Test results: US9492434B2, “Combination compositions and methods of treatment” (University of Florida Research Foundation, Inc., priority 2011, dated 2016)

Tests used:
Format in all cases: cell-based, human
[1] = test system: E-Cadherin-containing complexes; assay: GST pulldown (glutathione-agarose) of E-Cadherin complexes from 231/E-Cad-GST cells, immunoblot; details: for stabilization of E-Cadherin/γ-Catenin complexes relative to vehicle: 10 nM Largazole, 1 μM SAHA, or 100 nM TSA (FIG. 6C)
Description: Cells were subjected to hypotonic lysis and membrane fractions were isolated by centrifugation for one hour at 100,000×g. The pellet was solubilized by sonication in buffer containing 2% Triton X100, 20 mM HEPES (pH 7.4), 1 mM EDTA, 1 mM EGTA, 0.1% β-mercaptoethanol, 5% glycerol, 10 nM microcystin, 200 μM Na3VO4, and 40 mM Na2H2P2O7. The membrane extract was centrifuged for one hour at 100,000×g, and the supernatant was used for E-Cadherin purifications. Complexes containing E-Cad-GST were isolated using glutathione-agarose (G4510; Sigma-Aldrich, St. Louis, Mo.), washed, and either eluted with 5 mM glutathione or eluted by boiling in SDS-PAGE sample buffer. In sequential purifications involving γ-Catenin-His6 and E-Cad-GST proteins expressed in the same cells, TALON (635503; Clontech Laboratories, Inc., Mountain View, Calif.) resin purifications were performed as described previously (Chytil et al 2004), and the 400 mM imidazole eluents were diluted ten-fold and purified using glutathione-agarose, followed by elution with 5 mM glutathione. […] Immunoprecipitations were performed as described previously (Law et al 2002) using 2 mg of total protein extract per sample and 4 μg of antibody per sample. Immunoprecipitates prepared using antibodies to E-Cadherin (610182; BD Biosciences) or GST (sc-459; Santa Cruz Biotechnology Inc.) were isolated with 35 μl per sample Protein G-Sepharose (10-1242; Invitrogen), washed, and eluted by boiling in SDS-PAGE sample buffer.
FIG. 6. […] A. Crude lysates (left panel) or GST pulldowns (right panel) from 231/E-Cad-GST cells treated for 72 hrs with 100 nM Dexamethasone, 10 nM Largazole, or Dex.+Larg. were analyzed by immunoblot. B. 231/E-Cad-GST cells were infected with an adenovirus encoding His6-tagged γ-Catenin and 231/neo cells were infected with an adenovirus encoding GFP and incubated 24 hours. The cells were then treated as indicated for 72 hrs with or without Dex.+Larg. γ-Catenin- and E-Cadherin containing complexes were isolated by sequential TALON and glutathione-agarose chromatography and analyzed by immunoblot. C. 231/E-Cad-GST cells were treated with 10 nM Largazole, 1 μM SAHA, or 100 nM TSA for 72 hrs and extracts were subjected to glutathione-agarose chromatography and the affinity purified material was analyzed by immunoblot.

[2] = test system: 231/E-GFP cell line (MDA-MB-231 cells stably expressing E-Cad-GFP); assay: Fluorescence microscopy of E-Cad-GFP localization in 231/E-Cad-GFP cells; details: 72 hrs, 100 nM Dexamethasone, 10 nM Largazole, or both (FIG. 3A)
Description: Fluorescence and immunofluorescence microscopy were performed essentially as described previously (Corsino et al 2008) employing antibodies to E-Cadherin (610182; BD Bioscience) and γ-Catenin (138500; Invitrogen, Carlsbad, Calif.).
The 231/E-GFP cell line was treated with a series of small molecule signaling agonists and antagonists to identify compounds that modulate E-Cadherin localization within the cell. […] Changes in E-Cadherin localization partially overlapped with changes in γ-Catenin localization. In vitro invasion assays were performed to determine the respective effects of E-Cadherin expression and Dex.+Larg. treatment on the invasiveness of MDA-MB-231 cells.
FIG. 3. Dexamethasone and Largazole cooperate to suppress invasion and to restore E-Cadherin localization to the cell periphery. A. Fluorescence (E-Cad-GFP) or immunofluorescence microscopy (γ-Catenin (γ-Cat.)) of 231/E-Cad-GFP cells treated for 72 hrs with Vehicle (Control), 100 nM Dexamethasone, 10 nM Largazole, or 100 nM Dexamethasone+10 nM Largazole (Dex.+Larg.). […] BT549 cells were treated and analyzed by immunofluorescence microscopy as in FIG. 3A. D. BT549 cells were treated as described in FIG. 3A and analyzed for invasion as outlined in FIG. 3B.

CDCP1 = CDCP1 immunoblot analysis, MDA-MB-231 cells; details: 72 hr, Dexamethasone 100 nM, Largazole 10 nM (FIG. 5A, 5C)
BT549 cells = details: 72 hrs; 100 nM Dexamethasone, 10 nM Largazole, or both (FIG. 3D)

Structure (SMILES) | stabilization of E-Cadherin/γ-Catenin complexes relative to vehicle ([1]; 231/E-Cad-GST cells, 72 hrs) | E-Cadherin localization to the cell-cell periphery [2] | γ-Catenin binding to E-Cadherin ([1]; 231/E-Cad-GST cells, 72 hrs, 100 nM Dexamethasone or 10 nM Largazole (FIG. 6A)) | levels of γ-Catenin ([1]; 231/E-Cad-GST crude lysates, 72 hrs, 10 nM Largazole (FIG. 6A)) | E-Cadherin association with β-Catenin ([1]; Largazole treatment) | CDCP1 cleavage (cleaved form cCDCP1, p80) (CDCP1) | invasion of BT549 cells in vitro (BT549 cells)
O=C(CCCCCCC(=O)Nc1ccccc1)NO [SAHA, suberoylanilide hydroxamic acid, reference compound] | stabilized E-Cadherin/γ-Catenin complexes to similar extents relative to vehicle treatment |  |  |  |  |  | 
CCCCCCCC(=O)SCC/C=C/[C@@H]1CC(=O)NCc2nc(cs2)C2=N[C@@](C)(CS2)C(=O)N[C@@H](C(C)C)C(=O)O1 [Largazole, largazole] | stabilized E-Cadherin/γ-Catenin complexes to similar extents relative to vehicle treatment | modestly increased E-Cadherin localization to the cell-cell periphery | preferentially increased γ-Catenin binding to E-Cadherin relative to β-Catenin binding | without changing the levels of γ-Catenin | little effect on E-Cadherin association with β-Catenin | did not influence CDCP1 cleavage | suppressed the invasion of BT549 cells in vitro
CC(/C=C/C(=O)NO)=C\[C@@H](C)C(=O)c1ccc(N(C)C)cc1 [TSA, Trichostatin A, reference compound] | stabilized E-Cadherin/γ-Catenin complexes to similar extents relative to vehicle treatment |  |  |  |  |  | 
